Source: US10494332B2, “Protein tyrosine phosphatases or SHP2 inhibitors and uses thereof” (Indiana University Research and Technology Corporation, priority 2015, dated 2019)
pIC50: −log10 of the molar value. “And” between values parts separate entries of the source, which are not always exact repeats. Equal values may be shown once. Read-outs that look alike come from different tables or passages of the source.

Key:
CDC14A = target: T1, CDC14A (Homo sapiens, UniProt Q9UNH5); experiment: PTP inhibition assay (pNPP); assay type: biochemical
T1 sequence (Q9UNH5 1-594): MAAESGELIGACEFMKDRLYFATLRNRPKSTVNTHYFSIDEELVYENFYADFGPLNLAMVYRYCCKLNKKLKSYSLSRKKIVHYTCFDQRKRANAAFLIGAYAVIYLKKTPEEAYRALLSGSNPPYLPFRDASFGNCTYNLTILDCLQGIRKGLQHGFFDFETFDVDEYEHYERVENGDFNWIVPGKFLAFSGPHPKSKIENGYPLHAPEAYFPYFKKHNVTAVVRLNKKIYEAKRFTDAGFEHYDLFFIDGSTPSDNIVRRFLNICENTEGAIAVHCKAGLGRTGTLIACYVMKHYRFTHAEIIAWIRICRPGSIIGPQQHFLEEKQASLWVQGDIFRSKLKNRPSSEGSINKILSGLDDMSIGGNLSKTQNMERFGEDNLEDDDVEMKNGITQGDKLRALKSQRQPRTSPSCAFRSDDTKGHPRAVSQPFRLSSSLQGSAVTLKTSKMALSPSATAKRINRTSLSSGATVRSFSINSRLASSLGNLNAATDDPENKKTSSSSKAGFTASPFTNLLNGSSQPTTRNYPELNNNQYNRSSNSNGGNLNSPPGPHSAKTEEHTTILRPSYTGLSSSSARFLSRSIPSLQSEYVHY

HePTP = target: T2, HePTP (Homo sapiens, UniProt P35236); experiment: PTP inhibition assay (pNPP); assay type: biochemical; conditions: pNPP at Km, pH 7.0, 25° C.
T2 sequence (P35236 1-360): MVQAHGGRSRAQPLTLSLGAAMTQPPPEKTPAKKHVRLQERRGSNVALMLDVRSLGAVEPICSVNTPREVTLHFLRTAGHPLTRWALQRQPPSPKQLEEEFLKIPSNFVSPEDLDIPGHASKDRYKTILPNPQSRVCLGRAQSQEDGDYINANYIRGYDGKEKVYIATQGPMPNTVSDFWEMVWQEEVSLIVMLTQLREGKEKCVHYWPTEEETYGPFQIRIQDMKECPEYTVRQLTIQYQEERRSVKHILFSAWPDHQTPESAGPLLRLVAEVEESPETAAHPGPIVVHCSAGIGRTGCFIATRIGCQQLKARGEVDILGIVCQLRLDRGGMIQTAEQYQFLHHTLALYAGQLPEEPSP

FAP1 = FAP1 (Homo sapiens, UniProt Q12923); experiment: PTP inhibition assay (pNPP); assay type: biochemical
PTPσ = PTPσ (Homo sapiens, UniProt Q13332); experiment: PTP inhibition assay (pNPP); assay type: biochemical
PTPσ, sequence (Q13332 30-1948): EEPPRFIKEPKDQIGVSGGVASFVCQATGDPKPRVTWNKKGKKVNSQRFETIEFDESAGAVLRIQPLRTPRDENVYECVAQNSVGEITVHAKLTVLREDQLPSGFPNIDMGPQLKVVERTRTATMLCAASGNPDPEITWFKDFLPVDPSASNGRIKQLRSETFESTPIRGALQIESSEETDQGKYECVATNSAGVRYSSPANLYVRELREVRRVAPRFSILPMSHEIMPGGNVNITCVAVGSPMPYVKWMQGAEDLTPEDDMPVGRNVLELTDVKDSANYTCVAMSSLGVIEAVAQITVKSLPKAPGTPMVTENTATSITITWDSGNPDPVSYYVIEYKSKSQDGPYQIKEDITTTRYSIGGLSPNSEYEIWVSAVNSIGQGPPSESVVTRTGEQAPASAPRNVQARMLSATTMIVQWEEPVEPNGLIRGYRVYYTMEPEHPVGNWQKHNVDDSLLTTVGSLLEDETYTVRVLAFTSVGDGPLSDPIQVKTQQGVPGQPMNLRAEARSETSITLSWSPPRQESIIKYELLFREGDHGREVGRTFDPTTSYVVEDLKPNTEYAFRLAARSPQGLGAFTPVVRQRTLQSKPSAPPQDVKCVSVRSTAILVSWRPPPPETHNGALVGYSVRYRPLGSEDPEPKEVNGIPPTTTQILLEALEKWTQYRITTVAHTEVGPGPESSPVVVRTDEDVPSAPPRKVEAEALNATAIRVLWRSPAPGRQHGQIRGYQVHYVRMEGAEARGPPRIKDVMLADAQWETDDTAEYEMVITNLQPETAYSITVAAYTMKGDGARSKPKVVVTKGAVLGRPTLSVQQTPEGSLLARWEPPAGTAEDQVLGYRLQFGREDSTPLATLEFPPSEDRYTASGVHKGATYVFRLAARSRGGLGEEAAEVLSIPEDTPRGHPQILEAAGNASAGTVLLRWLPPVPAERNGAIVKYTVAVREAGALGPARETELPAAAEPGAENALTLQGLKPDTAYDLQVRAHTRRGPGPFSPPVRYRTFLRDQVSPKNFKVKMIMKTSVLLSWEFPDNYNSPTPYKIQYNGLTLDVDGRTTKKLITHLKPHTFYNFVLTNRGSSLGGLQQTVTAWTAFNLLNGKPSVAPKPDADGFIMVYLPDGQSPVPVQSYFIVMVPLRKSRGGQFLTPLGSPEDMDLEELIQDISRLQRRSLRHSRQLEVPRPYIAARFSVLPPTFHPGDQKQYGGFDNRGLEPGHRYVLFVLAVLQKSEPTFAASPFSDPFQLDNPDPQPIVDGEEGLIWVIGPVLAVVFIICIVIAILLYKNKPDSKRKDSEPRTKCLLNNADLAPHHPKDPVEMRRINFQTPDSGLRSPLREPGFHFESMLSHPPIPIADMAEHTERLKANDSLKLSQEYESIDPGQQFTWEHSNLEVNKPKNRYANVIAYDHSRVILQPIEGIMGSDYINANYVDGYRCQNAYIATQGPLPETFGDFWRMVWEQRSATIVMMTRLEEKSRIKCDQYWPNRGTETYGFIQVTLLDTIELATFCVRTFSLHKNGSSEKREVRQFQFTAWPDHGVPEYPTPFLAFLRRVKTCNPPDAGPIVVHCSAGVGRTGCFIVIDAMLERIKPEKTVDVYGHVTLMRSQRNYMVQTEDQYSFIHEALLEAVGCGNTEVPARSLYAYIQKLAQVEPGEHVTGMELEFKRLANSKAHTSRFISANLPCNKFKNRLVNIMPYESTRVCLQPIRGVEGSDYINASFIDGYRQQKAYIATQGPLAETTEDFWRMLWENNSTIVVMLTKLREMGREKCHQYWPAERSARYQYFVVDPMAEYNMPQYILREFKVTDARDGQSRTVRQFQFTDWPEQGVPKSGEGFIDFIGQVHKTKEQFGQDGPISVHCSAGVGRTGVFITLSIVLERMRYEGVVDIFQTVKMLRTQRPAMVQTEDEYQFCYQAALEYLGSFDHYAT

PTPα = PTPα (Homo sapiens, UniProt P18433); experiment: PTP inhibition assay (pNPP); assay type: biochemical
PTPα, sequence (P18433 20-802): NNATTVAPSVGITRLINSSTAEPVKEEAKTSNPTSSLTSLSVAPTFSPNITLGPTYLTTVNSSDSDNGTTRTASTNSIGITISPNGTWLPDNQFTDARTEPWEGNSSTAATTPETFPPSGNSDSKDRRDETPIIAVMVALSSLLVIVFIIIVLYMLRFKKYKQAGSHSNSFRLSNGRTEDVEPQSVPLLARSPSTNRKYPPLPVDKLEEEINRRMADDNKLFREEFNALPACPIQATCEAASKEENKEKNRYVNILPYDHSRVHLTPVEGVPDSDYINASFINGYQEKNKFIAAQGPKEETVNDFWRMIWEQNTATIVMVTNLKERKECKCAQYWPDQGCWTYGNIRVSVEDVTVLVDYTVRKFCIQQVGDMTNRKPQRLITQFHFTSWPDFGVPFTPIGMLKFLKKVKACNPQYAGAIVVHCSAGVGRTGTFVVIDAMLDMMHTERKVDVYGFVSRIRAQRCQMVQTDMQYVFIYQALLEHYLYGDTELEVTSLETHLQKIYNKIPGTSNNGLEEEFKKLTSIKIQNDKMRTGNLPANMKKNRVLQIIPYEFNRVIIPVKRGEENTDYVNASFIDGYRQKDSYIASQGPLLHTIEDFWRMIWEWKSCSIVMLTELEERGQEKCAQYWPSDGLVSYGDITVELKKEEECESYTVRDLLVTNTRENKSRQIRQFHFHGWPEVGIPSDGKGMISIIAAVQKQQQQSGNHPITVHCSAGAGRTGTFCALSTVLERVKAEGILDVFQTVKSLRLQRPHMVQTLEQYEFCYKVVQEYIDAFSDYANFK

PTPμ = PTPμ (Homo sapiens, UniProt P28827); experiment: PTP inhibition assay (pNPP)
PTPμ, sequence (P28827 21-1452): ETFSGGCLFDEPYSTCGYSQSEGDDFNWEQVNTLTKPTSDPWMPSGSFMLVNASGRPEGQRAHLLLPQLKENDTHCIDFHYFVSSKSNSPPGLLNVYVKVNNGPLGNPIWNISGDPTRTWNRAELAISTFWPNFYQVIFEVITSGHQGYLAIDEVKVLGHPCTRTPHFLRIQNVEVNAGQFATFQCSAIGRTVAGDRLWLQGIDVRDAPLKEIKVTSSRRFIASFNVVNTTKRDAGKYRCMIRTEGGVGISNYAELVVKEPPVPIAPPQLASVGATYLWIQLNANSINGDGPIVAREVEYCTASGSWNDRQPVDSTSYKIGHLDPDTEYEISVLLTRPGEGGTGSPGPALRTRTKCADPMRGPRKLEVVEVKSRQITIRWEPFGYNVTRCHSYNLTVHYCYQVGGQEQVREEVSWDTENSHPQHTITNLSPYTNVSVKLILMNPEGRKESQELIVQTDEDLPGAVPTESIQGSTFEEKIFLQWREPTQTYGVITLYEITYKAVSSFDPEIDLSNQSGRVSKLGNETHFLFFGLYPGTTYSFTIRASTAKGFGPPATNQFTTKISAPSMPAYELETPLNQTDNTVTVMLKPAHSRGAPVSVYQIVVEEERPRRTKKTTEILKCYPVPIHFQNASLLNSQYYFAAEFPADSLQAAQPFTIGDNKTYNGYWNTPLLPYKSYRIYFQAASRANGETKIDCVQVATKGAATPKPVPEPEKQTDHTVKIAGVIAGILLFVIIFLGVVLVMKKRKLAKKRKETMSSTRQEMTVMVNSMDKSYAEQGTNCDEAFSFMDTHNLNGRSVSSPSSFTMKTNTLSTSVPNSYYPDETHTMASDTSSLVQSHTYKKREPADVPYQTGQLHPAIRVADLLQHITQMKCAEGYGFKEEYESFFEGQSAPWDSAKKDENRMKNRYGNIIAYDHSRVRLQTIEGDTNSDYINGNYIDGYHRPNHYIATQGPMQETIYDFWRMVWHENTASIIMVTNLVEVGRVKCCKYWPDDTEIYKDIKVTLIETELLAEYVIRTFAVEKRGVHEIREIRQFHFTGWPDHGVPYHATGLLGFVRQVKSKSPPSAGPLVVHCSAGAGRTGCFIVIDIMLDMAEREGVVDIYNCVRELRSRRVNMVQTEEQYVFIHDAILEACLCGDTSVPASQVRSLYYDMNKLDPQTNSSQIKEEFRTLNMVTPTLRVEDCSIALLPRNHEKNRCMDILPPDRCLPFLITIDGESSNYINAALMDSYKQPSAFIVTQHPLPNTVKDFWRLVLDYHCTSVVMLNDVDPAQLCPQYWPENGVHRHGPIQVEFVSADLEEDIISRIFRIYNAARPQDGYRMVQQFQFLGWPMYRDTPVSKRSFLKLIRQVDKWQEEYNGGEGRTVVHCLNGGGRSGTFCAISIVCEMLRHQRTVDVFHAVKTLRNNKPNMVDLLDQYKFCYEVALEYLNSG

PP5 = target: T3, PP5 (Homo sapiens, UniProt P53041); experiment: Phosphatase inhibition assay (pNPP)
T3 sequence (P53041 1-499): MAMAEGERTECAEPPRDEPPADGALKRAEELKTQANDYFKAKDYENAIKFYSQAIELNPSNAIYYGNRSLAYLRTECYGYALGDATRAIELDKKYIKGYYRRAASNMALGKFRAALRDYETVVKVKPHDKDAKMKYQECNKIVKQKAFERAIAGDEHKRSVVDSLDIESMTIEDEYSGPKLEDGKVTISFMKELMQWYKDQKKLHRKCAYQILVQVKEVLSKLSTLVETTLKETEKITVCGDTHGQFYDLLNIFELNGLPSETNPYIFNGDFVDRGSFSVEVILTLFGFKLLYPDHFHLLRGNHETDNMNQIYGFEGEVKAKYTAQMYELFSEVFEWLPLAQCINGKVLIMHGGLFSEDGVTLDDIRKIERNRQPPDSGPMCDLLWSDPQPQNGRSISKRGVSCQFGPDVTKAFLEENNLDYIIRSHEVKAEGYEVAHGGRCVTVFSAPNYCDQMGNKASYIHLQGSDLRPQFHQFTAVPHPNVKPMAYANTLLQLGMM

PTP1B = target: T4, PTP1B (Homo sapiens, UniProt P18031); experiment: PTP inhibition assay (pNPP); assay type: biochemical; conditions: pNPP at Km, pH 7.0, 25° C.
T4 sequence (P18031 1-435): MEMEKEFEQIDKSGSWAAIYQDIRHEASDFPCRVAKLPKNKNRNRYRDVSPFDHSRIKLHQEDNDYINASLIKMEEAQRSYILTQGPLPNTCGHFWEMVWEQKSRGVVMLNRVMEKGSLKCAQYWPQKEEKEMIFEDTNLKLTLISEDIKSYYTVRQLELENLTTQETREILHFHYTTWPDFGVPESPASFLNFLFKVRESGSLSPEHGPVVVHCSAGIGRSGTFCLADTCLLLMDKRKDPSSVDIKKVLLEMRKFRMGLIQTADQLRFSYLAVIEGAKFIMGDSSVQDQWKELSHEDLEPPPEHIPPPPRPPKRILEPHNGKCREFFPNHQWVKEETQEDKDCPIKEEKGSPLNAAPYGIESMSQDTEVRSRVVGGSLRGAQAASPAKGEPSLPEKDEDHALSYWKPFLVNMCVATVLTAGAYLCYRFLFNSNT

[1] = pNPP at Km, pH 7.0, 25° C., read-out: IC50 FAP1

Measured: pIC50

O=C(CS(=O)(=O)O)Nc1ccc2nc(C(F)(F)F)[nH]c2c1
< 4.00: CDC14A | HePTP | FAP1; [1] | PTPσ; read-out: IC50 PTPσ | PTPα | PTPμ | PP5 | PTP1B

O=C(C(c1ccccc1)S(=O)(=O)O)N1CCC(c2ccc(Cl)c(Cl)c2)CC1 (centres unmarked) [Compound L319N47]
3.84: PTP1B
4.11: HePTP
4.68: FAP1; [1]
< 3.70: CDC14A | PTPσ; read-out: IC50 PTPσ | PTPα | PTPμ | PP5

O=C(C(c1ccccc1)S(=O)(=O)O)N1CCC(Cc2ccccc2)CC1 (centres unmarked) [Compound L319N46]
< 3.70: CDC14A | HePTP | FAP1; [1] | PTPσ; read-out: IC50 PTPσ | PTPα | PTPμ | PP5 | PTP1B

O=C(CS(=O)(=O)O)Nc1cnc2ccccc2c1
< 4.00: CDC14A | HePTP | FAP1; [1] | PTPσ; read-out: IC50 PTPσ | PTPα | PTPμ | PP5 | PTP1B

O=C(Nc1ccc(N2CCOCC2)cc1)C(c1ccccc1)S(=O)(=O)O (centres unmarked) [Compound L319M68]
< 3.70: CDC14A | HePTP | FAP1; [1] | PTPσ | PTPα | PTPμ | PP5 | PTP1B

O=C(C(c1ccccc1)S(=O)(=O)O)N1CCCC2CCCCC21 (centres unmarked) [Compound L319N53]
4.12: FAP1; [1]
< 3.70: CDC14A | HePTP | PTPσ; read-out: IC50 PTPσ | PTPα | PTPμ | PP5 | PTP1B

Cc1c(Br)cc(NC(=O)C(c2ccccc2)S(=O)(=O)O)cc1Br (centres unmarked) [Compound L319M34]
< 4.00: HePTP | FAP1; IC50 FAP1

O=C(Nc1cccc(OCc2ccccc2)c1)C(=O)Nc1ccccc1NC(=O)C(c1ccccc1)S(=O)(=O)O (centres unmarked) [Compound L319-21-M52]
< 4.30: HePTP | FAP1; [1] | PTP1B

O=C(Nc1nc2ccccc2s1)C(c1ccccc1)S(=O)(=O)O (centres unmarked) [Compound L319N15]
4.47: FAP1; [1]
4.30: HePTP
< 3.70: CDC14A | PTPσ | PTPα | PTPμ | PP5 | PTP1B

O=C(CS(=O)(=O)O)Nc1nc2ccc([N+](=O)[O-])cc2s1 [Compound L335N15-07]
< 4.00: CDC14A | HePTP | FAP1; [1] | PTPσ; read-out: IC50 PTPσ | PTPα | PTPμ | PP5 | PTP1B

O=C(Nc1cnc2ccccc2c1)C(c1ccccc1)S(=O)(=O)O (centres unmarked) [Compound L319M88]
< 3.70: CDC14A | HePTP | FAP1; [1] | PTPσ | PTPα | PTPμ | PP5 | PTP1B

Cc1c(Br)cc(NC(=O)CS(=O)(=O)O)cc1Br
< 4.00: CDC14A | HePTP | PTPα | PTPμ | PP5 | PTP1B

O=C(CS(=O)(=O)O)Nc1nc2ccccc2s1 [Compound L335N15]
< 4.00: CDC14A | HePTP | FAP1; [1] | PTPσ; read-out: IC50 PTPσ | PTPα | PTPμ | PP5 | PTP1B

O=C(NCc1ccc(NC(=O)C(c2ccccc2)S(=O)(=O)O)cc1)c1ccccc1-c1ccc(C(F)(F)F)cc1 (centres unmarked) [Compound L319-05-A64]
3.74: PTP1B
3.82: HePTP
4.15: FAP1; [1]

O=C(Nc1ccc(OCc2ccccc2)c(Cl)c1)C(c1ccccc1)S(=O)(=O)O (centres unmarked) [Compound L319M50]
4.14: FAP1; [1]
< 3.70: PTP1B
< 4.00: HePTP

O=C(Nc1cccc(OCc2ccccc2)c1)C(c1ccccc1)S(=O)(=O)O (centres unmarked) [Compound L319M52]
3.89 and < 4.00: HePTP
4.06: FAP1; [1]
< 3.70: CDC14A | PTPσ; read-out: IC50 PTPσ | PTPα | PTPμ | PP5 | PTP1B

O=C(Nc1ccc(-c2ccccc2)cc1)C(c1ccccc1)S(=O)(=O)O (centres unmarked) [Compound L319N08]
4.15: FAP1; IC50 FAP1
< 3.70: PTP1B
4.11: HePTP

O=C(NCCNC(=O)C(c1ccccc1)S(=O)(=O)O)c1cccc(C(=O)c2ccccc2)c1 (centres unmarked) [Compound L319-02-A60]
< 3.70: HePTP | FAP1; [1] | PTP1B

CCCCc1ccc(NC(=O)C(=O)Nc2ccccc2NC(=O)C(c2ccccc2)S(=O)(=O)O)cc1 (centres unmarked) [Compound L319-21-M06]
< 4.30: HePTP | FAP1; [1] | PTP1B

O=C(Nc1ccc2nc(C(F)(F)F)[nH]c2c1)C(c1ccccc1)S(=O)(=O)O (centres unmarked) [Compound L319M54]
< 3.70: CDC14A | HePTP | PTPσ | PTPα | PTPμ | PP5 | PTP1B
3.74 and < 4.00: FAP1; [1]
